One series deals with T1, hLC3-hAtg3 interaction (Homo sapiens, UniProt Q9GZQ8).
T1 construct: made in house; host or cells: E. coli Rosetta 2
The experiment in a line: SPR protein-protein interaction assay, hLC3-hAtg3. In kind it is binding. The settings on record: 500 μM. On the procedure: Surface Plasmon Resonance (SPR) protein-protein interaction assay. All measurements were carried out on a BiaCore 3000 instrument. We used the previously described SPR competition assay to test inhibition of the PfAtg8-PfAtg3 and hLC3-hAtg3 interaction. The standard running buffer was 10 mM HEPES, 150 mM NaCl, 0.01% Tween 20, adjusted to pH 7.5. Prior to performing SPR assays, all solutions were sterile filtered and degassed for 1 h at room temperature. For small molecule inhibitor studies, the same running buffer was supplemented with 1% DMSO. All dose dependency measurements were carried out in triplicate and corrected for DMSO absorption effects using double referencing with interspersed blank injections and an untreated flow cell on the SPR chip and the SPR analysis software Scrubber 2.0 (BioLogics). For each interaction pair, a new CM5 SPR chip was used. To exclude surface decay during the experiment, positive control injections were interspersed every 12th injection. For all interaction studies, the Atg3 homologue was immobilized and the corresponding Atg8 partner was passed as an analyte over the chip in either the presence or absence of small molecule inhibitors, dissolved to 100 mM in 100% DMSO and tested at 500 μM final concentration. […]

Series [1] has as its target T2, PfAtg8-PfAtg3 interaction (Plasmodium falciparum, UniProt Q8IJK2).
T2 construct: rows headed: SPR-IC50
T2 sequence (Q8IJK2 1-124 C32I/C119S/C122S): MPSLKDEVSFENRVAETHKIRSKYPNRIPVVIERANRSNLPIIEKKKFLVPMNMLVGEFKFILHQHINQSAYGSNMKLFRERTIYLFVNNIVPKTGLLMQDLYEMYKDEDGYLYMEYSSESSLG
The experiment in a line: SPR protein-protein interaction assay, PfAtg8-PfAtg3 (VLS compounds). The note with it: read-out: SPR-IC50; dose-dependent inhibition of plasmodial Atg8-Atg3. The class given is binding, P. falciparum. The procedure: Surface Plasmon Resonance (SPR) protein-protein interaction assay. All measurements were carried out on a BiaCore 3000 instrument. We used the previously described SPR competition assay to test inhibition of the PfAtg8-PfAtg3 and hLC3-hAtg3 interaction. The standard running buffer was 10 mM HEPES, 150 mM NaCl, 0.01% Tween 20, adjusted to pH 7.5. Prior to performing SPR assays, all solutions were sterile filtered and degassed for 1 h at room temperature. For small molecule inhibitor studies, the same running buffer was supplemented with 1% DMSO. All dose dependency measurements were carried out in triplicate and corrected for DMSO absorption effects using double referencing with interspersed blank injections and an untreated flow cell on the SPR chip and the SPR analysis software Scrubber 2.0 (BioLogics). For each interaction pair, a new CM5 SPR chip was used. To exclude surface decay during the experiment, positive control injections were interspersed every 12th injection. For all interaction studies, the Atg3 homologue was immobilized and the corresponding Atg8 partner was passed as an analyte over the chip in either the presence or absence of small molecule inhibitors, dissolved to 100 mM in 100% DMSO and tested at 500 μM final concentration. Prior to the immobilization of Atg3 to an SPR chip, a pH scouting from pH 6.0 to pH 4.0 in intervals of 0.5 pH units was carried out to determine the best pre-concentration conditions for immobilization. Briefly, flow cells of an SPR chip were activated using N-hydroxysuccinimide (NHS) and 1-ethyl-3-(3-dimethylaminopropyl)carbodiimide (EDC) for 7 min with a flow rate of 20 μl/min. For PfAtg3 immobilization, a solution of 50 μg/ml of PfAtg3 in 10 mM sodium acetate pH 5.0 was passed over one flow cell until >500 Response Units (RU) were captured. The same procedure was followed for the immobilization of hAtg3. Activated free binding sites on the chip were blocked using 1 M ethanolamine for an additional 7 min. All experiments were carried out at 25° C. with a 40 μl/min flow rate and 75 s contact time, followed by a 1 min dissociation time and a 25 μl regeneration injection of 2 M MgCl2.
The dose-response curves were used to determine the approximate concentration of analyte (PfAtg8 or hLC3) needed to obtain a particular response unit (RU), typically in the range of 100-150 RU's. A fixed amount of analyte was then passed over the chip resulting in at least 100-150 response units (RU) in the absence of small molecules.

Another series concerns P. falciparum 3D7-GFP. In kind it is cell-based. The note with it: 96 hrs post infection. On the procedure:
In vitro infection of human hepatocytes with P. falciparum 3D7-GFP. The HC-04 cell line (ATCC, Manassas, Va., USA) was maintained in complete medium (IMDM containing 2.5% FCS, 100 units/ml penicillin, 100 μg/ml streptomycin and 2 mM L-glutamine, all from GIBCO®, Life Technologies, Grand Island, N.Y.). P. falciparum 3D7-GFP parasite strain (PLoS ONE 2010, 5, e9156) was propagated in the Parasitology Core facility, the Johns Hopkins Malaria Research Institute. In vitro infection of human hepatocytes was done as described previously (PLoS ONE 2013, 8, e75321). Briefly, salivary glands were sequestered from infected Anopheles gambiae mosquitoes at day 17 after exposure to infective blood meal and homogenates were separated on an OptiPrep™ Density Gradient (Sigma-Aldrich, St. Louis, Mo.) at 12,000×g for 10 minutes. Sporozoites were collected from the gradient interface, washed in complete medium, counted using a hemocytometer and incubated with HC-04 cells at 3:1 sporozoite to hepatocyte ratio for 2 hours at 37° C. […]
Detection of P. falciparum exoerythrocytic forms in vitro. HC-04 human hepatocyte cell line (ATCC, Manassas, Va., USA) was maintained in complete medium (IMDM containing 2.5% FCS, 100 units/ml penicillin, 100 μg/ml streptomycin and 2 mM L-glutamine, all from GIBCO®, Life Technologies, Grand Island, N.Y.). P. falciparum 3D7HT-GFP parasite strain (PLoS One. 5(2):e9156. doi:10.1371/journal.pone.0009156 (2010)) was propagated in the Parasitology Core facility of the Johns Hopkins Malaria Research Institute. In vitro infection of human hepatocytes, and detection and quantification of P. falciparum 3D7HT-GFP EEFs by flow cytometry were performed as previously described (PLoS One. 8(9):e75321. doi:10.1371/journal.pone.0075321 (2013)).

In the next series the test system is PfAtg8. Description: Immunoblot analysis of PfAtg8 in P. falciparum blood stage cultures. In kind it is cell-based. The note with it: 100 μM, five-hour treatment. The source says:
Immunoblot analysis of P. falciparum blood stage. […] RBCs were harvested with centrifugation, lysed with 0.2% saponin, and RBC lysate was removed through three 1× PBS washes. Parasites were harvested by centrifugation and washed in 1× PBS with Complete EDTA-free protease inhibitors (Roche) and lysed by repeated vortexing and boiling in SDS reducing sample buffer. […] HRP-conjugated secondary antibodies (Southern Biotech) were detected by SuperSignal West Femto (Thermo Scientific) or Amersham™ ECL™ Prime (GE Healthcare) chemiluminescent substrate. AP-conjugated secondary antibodies (EMD Millipore) were detected using NBT/BCIP (Promega) colorimetric stain. Total protein levels were visualized with ProAct™ Membrane Stain (Amresco) and quantified with ImageJ. Parasite morphology at time of harvesting was visualized with light microscopy at 100× magnification on Olympus BX53 system microscope (Olympus America, Inc.).
For orientation: Immunoblotting shows a protein as a band on a membrane.

Another series concerns HC-04 cells. The experiment in a line: HC-04 hepatocyte viability / cytotoxicity (Annexin-V, PI flow cytometry). The class given is cell-based, human. The settings on record: 96 hour treatment. Background: In flow cytometry, cells or beads pass a laser one at a time.
In the next series the test system is P. falciparum 3D7. Description: SYBR Green I growth inhibition assay, blood stage. In kind it is cell-based. The settings on record: Plasmodium falciparum, 3D7, 3D7 blood stage cultures; read-out: IC50. The procedure: P. falciparum blood stage culturing. P. falciparum 3D7 and FCR3 cultures were maintained using modified, previously published methods at 37° C., 2% hematocrit of human red blood cells (Science 1976, 193, 673-675). Complete culture media consisted of sterile RPMI 1640 media (Life Technologies), supplemented with 10% human serum, 0.005% hypoxanthine, and buffered with final concentrations of 0.6% HEPES and 0.26% NaHCO3. The FCR3 strain was maintained at 3% CO2 and 5% O2, 92% N2 atmosphere, while the 3D7 strain was maintained at 5% CO2, 5% O2, 90% N2 atmosphere.
SYBR Green I growth inhibition assay. 10 μL of 10× compound diluted in RPMI 1640 media (Gibco) with a constant concentration of 1% DMSO was added to a 96 well plate (Costar), 90 μL of 1.5% ring stage, synchronized with 5% w/v sorbitol P. falciparum 3D7 parasites, 1% hematocrit, in culture media with 10% v/v human serum with 10 μg/mL gentamycin. Each compound concentration and 1% v/v DMSO controls were run in triplicate. Plates were incubated at 37° C. in 5% O2, 5% CO2 and 90% N2 for 72 hours. Plates were frozen, thawed, and incubated with 100-μL 2× SYBR green in lysis buffer (20 mM Tris pH 7.5, 5 mM EDTA, 0.008% Saponin, 0.08% TritonX-100) in the dark for at least one hour. Fluorescence was measured with a plate reader (HTS 7000, Perkin Elmer) at excitation/emission wavelengths of 485/535 nm.
Plasmodium parasite growth inhibition assay. P. falciparum 3D7 parasites were cultured as previously described (J Med Chem 57:4521-4531(2014)). Briefly, the parasites were cultured in 10% v/v human serum with 10 μg/mL gentamycin and synchronized with 5% w/v sorbitol. 1.5% ring stage parasites were added to 96 well plates (Costar) containing serial dilutions, performed in triplicate, of compound in RPMI 1640 media (Gibco). Plates were incubated at 37° C. in 5% O2, 5% CO2, and 90% N2 for 72 h. Plates were frozen, thawed, and incubated with 100 μL 2× SYBR green in lysis buffer (20 mM Tris pH 7.5, 5 mM EDTA, 0.008% Saponin, 0.08% TritonX-100) in the dark for 1 h. Fluorescence was measured with a plate reader (HTS 7000, PerkinElmer) at excitation/emission wavelengths of 485/535 nm.

In the next series the target is PfAtg8^CM (Plasmodium falciparum, UniProt Q8IJK2). Description: Thermal shift assay. The settings on record: 100 μM to 2 mM.

Experimental for HC-04 cells: Detection of Annexin-V positive and PI-positive cells in hepatocyte cultures was done by flow cytometry according to the manufacturer's instruction (Invitrogen™, Life Technologies, Grand Island, N.Y., USA).
Hepatocyte cytotoxicity assay. Hepatocyte cytotoxicity assays were carried out in triplicate at two concentrations of inhibitory compounds using HC-04 cells as previously described. Flow cytometry was used to assess two cytotoxicity markers via staining, namely propidium iodine (PI) and Annexin-V.

With `Cc1cccn2cc(C(=O)NCC3CCN(Cc4cnc[nH]4)C3)nc12` (stereo not drawn) [Compound C24, N-([1-(1H-imidazol-5-ylmethyl)pyrrolidin-3-yl]methyl)-8-methyl-imidazo[3,2-a] pyridine-2-carboxamide], the “effect on hAtg3-hLC3 binding” value at hLC3-hAtg3 interaction is reported as “significant increase in binding”.

Take `Cc1cccc(CNC(=O)NCC2CCN(Cc3ccccn3)C2)c1` (stereo not drawn) [Compound C25, 1-[(3-methylphenyl)methyl]-3-([1-pyridin-2-ylmethyl-pyrrolidin-3-yl]methyl)urea]: the 50% inhibitory concentration (IC50) (usually the concentration needed to halve the response being measured) in series [1] amounted to 18.5 ± 2.1 µM. Besides, the “reduction of the number of infected HC-04 cells” value with P. falciparum 3D7-GFP (30 μM) was found to be 30%. The GFP fluorescence intensity entry in the series with P. falciparum 3D7-GFP was “little effect”. Besides, in the series on PfAtg8, the “increase of PfAtg8 protein levels compared to the loading control” value is given as “over 10 fold” and the “mobility of Atg8” value was “retarded, indicative of the unlipidated Atg8 species”. The “cell viability of HC-04 cells” value in the series with HC-04 cells is “did not affect cell viability”. The IC50 in the series with P. falciparum 3D7 worked out at 19 ± 6 µM. The “effect on Tm of PfAtg8^CM” value on PfAtg8^CM was “dose-dependent decrease”.

The values are drawn from patent publication US20170044150A1, “IDENTIFICATION OF COMPOUNDS WHICH INHIBIT ATG8-ATG3 PROTEIN-PROTEIN INTERACTION AND THEIR USE AS ANTIPARASITICAL AGENTS” (THE JOHNS HOPKINS UNIVERSITY, priority 2014, published 2017).
